# What was measured:
# GECFINDER-Ile1 = target: T1, GECFINDER-Ile1 (Bacillus licheniformis, UniProt O68006); test: Fluorescence dose-response of purified cpEGFP sensors (0.75 uM) in 100 mM Tris-HCl pH 7.5, room temperature, 1 mM ATP, 2.5 mM MgCl2; excitation 400, 460 or 480 nm by sensor, emission 510 nm; logistic five-parameter fit.; type: biochemical; conditions: n = 3
# T1 construct: gene bacA; BacA-IleA-PCP; cpEGFP inserted, linkers VY-CA
# Description: (§1) Fig. 3 Dose–response curves and fluorescence spectrums of […]s. a, c, e, g, i, k Dose–response curve of purified […]s with increasing concentrations of ligand in 100 mM Tris-HCl buffer (pH=7.5). The normalized ΔF/F0 value increased after ligand binding. All data shown are mean ± S.D. (n = 3 biologically independent samples). b, d, f, h, j, l The fluorescence spectra of […]s changed as the ligand concentration increased. All data shown are mean ± S.D. (n = 3 biologically independent samples). Source data are provided as a Source data file.
# (§2) The study conducted dose–response curve, substrate specificity, and fluorescent spectrum analyses in 100-mM Tris buffer (pH = 7.5), while pH stability experiments were performed in 100-mM Tris buffer at three different pH values (6.5, 7.5, and 8.5) at room temperature. […] protein at a concentration of 0.75 μM, various small molecule concentrations, 1 mM ATP, and 2.5 mM MgCl2 were used in the experiments. Fluorescent signals were detected using a Microplate Reader (Synergy H4, Bio Tek) at an excitation/emission wavelength of 460 nm/510 nm or 480 nm/510 nm. The dose-response curve was determined immediately after the addition of the analyte. The total duration of the measurement was 15 min, with readings taken at one-minute intervals. The dose-response curve was plotted using the fluorescence values obtained after achieving stability in the fluorescence signal. The dose-response curves were fitted using the logistic model LOGISTIC5 available in Origin 2021, which could provide a more adequate fit to asymmetric dose-response data[62],[63]. Excitation spectra were scanned from 300 to 540 nm with a step size of 5 nm, and the emission wavelength was set to 560 nm. Emission spectra were scanned from 470 to 700 nm with a step size of 5 nm, and the excitation wavelength was set to 450 nm. The thermal stability of […] was analyzed using the UNcle multifunctional protein stability analysis system. Measurements were performed in 20 mM MOPS buffer with 2 mM DTT at a sample concentration of 1 mg/mL. Absolute fluorescence quantum yields were measured using an absolute photoluminescence quantum yield spectrometer (FS5, Edinburgh).
# GECFINDER-Ile3 = target: T2, GECFINDER-Ile3 (Bacillus licheniformis, UniProt O68006); test: as above; type: biochemical; conditions: n = 3
# T2 construct: gene bacA; BacA-IleA-PCP; cpEGFP inserted, linkers VY-LS
# Description: as §1, §2
# GECFINDER-Ile2 = target: T3, GECFINDER-Ile2 (Bacillus licheniformis, UniProt O68006); test: as above; type: biochemical; conditions: n = 3
# T3 construct: gene bacA; BacA-IleA-PCP; cpEGFP inserted, linkers RY-PG
# Description: as §1, §2
# GECFINDER-His2 = target: T4, GECFINDER-His2 (Bacillus licheniformis, UniProt O68008); test: as above; type: biochemical; conditions: n = 3
# T4 construct: gene bacC; BacC-HisA-PCP; cpEGFP inserted, linkers GG-PV
# Description: as §1, §2
# GECFINDER-His1 = target: T5, GECFINDER-His1 (Bacillus licheniformis, UniProt O68008); test: as above; type: biochemical; conditions: n = 3
# T5 construct: gene bacC; BacC-HisA-PCP; cpEGFP inserted, linkers GA-HC
# Description: as §1, §2
# GECFINDER-Phe3 = target: T6, GECFINDER-Phe3 (Aneurinibacillus migulanus, UniProt P0C061); test: as above; type: biochemical; conditions: n = 3
# T6 construct: gene grsA; GrsA-PheA-PCP; cpEGFP inserted in hinge B, linkers VF-QS
# T6 sequence (P0C061 1-617): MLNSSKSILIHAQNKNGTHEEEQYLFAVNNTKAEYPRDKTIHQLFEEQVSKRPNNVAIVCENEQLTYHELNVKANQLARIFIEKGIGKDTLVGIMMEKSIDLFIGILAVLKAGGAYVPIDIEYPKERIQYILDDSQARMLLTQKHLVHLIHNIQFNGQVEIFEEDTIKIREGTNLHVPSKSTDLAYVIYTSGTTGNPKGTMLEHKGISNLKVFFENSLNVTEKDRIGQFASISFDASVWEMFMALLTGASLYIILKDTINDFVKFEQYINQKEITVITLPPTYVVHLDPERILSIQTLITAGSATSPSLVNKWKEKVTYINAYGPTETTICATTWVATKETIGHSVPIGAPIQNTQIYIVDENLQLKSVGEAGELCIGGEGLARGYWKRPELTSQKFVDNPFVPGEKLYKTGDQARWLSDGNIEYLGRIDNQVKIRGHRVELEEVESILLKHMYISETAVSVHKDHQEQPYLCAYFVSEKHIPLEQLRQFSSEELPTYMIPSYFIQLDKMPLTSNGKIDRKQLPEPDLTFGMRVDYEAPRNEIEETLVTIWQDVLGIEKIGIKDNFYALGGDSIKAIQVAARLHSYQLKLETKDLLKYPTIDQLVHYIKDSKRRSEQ
# Description: as §1, §2
# GECFINDER-SβF = test: Fluorescence dose-response of purified binding-pocket-engineered sensors (0.75 uM) in 100 mM Tris-HCl pH 7.5, room temperature, 1 mM ATP, 2.5 mM MgCl2, excitation 460 or 480 nm, emission 510 nm; logistic five-parameter fit.; type: biochemical; conditions: n = 3
# Description: (§3) Fig. 4 Engineering ligand specificity of GrsA-PheA for generating […]s. a The selectivity-conferring code of Phe and Leu A domains. b–f Dose–response curve of purified […]s with increasing concentrations of ligands in 100 mM Tris-HCl buffer (pH=7.5). All data shown are means ± S.D. (n = 3 biologically independent samples). g A series of […] reactions was tested to show the […]’s specificity with 20 proteinogenic amino acids. The values on the heatmap represent the ΔF/F0 value normalized to each […]’s maximal ΔF/F0 value ((ΔF/F0)/maximal ΔF/F0). The concentrations of 20 amino acids were 100 μM. The color indicates the average value of three independent biological replicates after 15 min. All data shown are means ± S.D. (n = 3 biologically independent samples). Source data are provided as a Source data file.
# as §2
# GECFINDER-4CA = target: T7, GECFINDER-4CA (Nicotiana tabacum, UniProt O24146); test: Fluorescence dose-response of purified cpEGFP sensors (0.75 uM) in 100 mM Tris-HCl pH 7.5, room temperature, 1 mM ATP, 2.5 mM MgCl2; excitation 400, 460 or 480 nm by sensor, emission 510 nm; logistic five-parameter fit.; type: biochemical; conditions: n = 3
# T7 construct: gene 4CL2; cpEGFP with fixed linkers (LE-cpEGFP-TR) inserted between Leu439 and Ile440 in hinge A of Nt4CL2
# Description: as §1, §2
# [1] = Fluorescence spectra / excitation wavelength scan of […]s; type: physicochemical; conditions: Wavelength 300 nm
# Description: (§4) Fig. 3 Dose–response curves and fluorescence spectrums of […]s. a, c, e, g, i, k Dose–response curve of purified […]s with increasing concentrations of ligand in 100 mM Tris-HCl buffer (pH=7.5). […] All data shown are mean ± S.D. (n = 3 biologically independent samples). Source data are provided as a Source data file.
# as §2
# [2] = Dose–response curve of purified […] with 4-coumaric acid; type: biochemical
# Description: as §4
# The study conducted dose–response curve, substrate specificity, and fluorescent spectrum analyses in 100-mM Tris buffer (pH = 7.5), while pH stability experiments were performed in 100-mM Tris buffer at three different pH values (6.5, 7.5, and 8.5) at room temperature. […] Fluorescent signals were detected using a Microplate Reader (Synergy H4, Bio Tek) at an excitation/emission wavelength of 460 nm/510 nm or 480 nm/510 nm. The dose-response curve was determined immediately after the addition of the analyte. The total duration of the measurement was 15 min, with readings taken at one-minute intervals. The dose-response curve was plotted using the fluorescence values obtained after achieving stability in the fluorescence signal. […] Excitation spectra were scanned from 300 to 540 nm with a step size of 5 nm, and the emission wavelength was set to 560 nm. Emission spectra were scanned from 470 to 700 nm with a step size of 5 nm, and the excitation wavelength was set to 450 nm. The thermal stability of […] was analyzed using the UNcle multifunctional protein stability analysis system. Measurements were performed in 20 mM MOPS buffer with 2 mM DTT at a sample concentration of 1 mg/mL. Absolute fluorescence quantum yields were measured using an absolute photoluminescence quantum yield spectrometer (FS5, Edinburgh).
# [3] = Dependence of […]s on Mg2+ and ATP (fluorescence intensity); type: biochemical; conditions: Supplementary Fig. 4 a; Mg+ +, ATP +, 4-coumaric acid +
# Text: Ligand specificity is an important biosensors feature. Generally, the NRPS A domains have high specificity for their substrates because they are the first “gatekeeper” of NRPSs and ensure that the correct monomers are activated and thioesterified[32],[33]. […] Twenty proteinogenic amino acids were used to test the ligand specificity of […]s. […] We also investigated the dependence of […]s on Mg^2+ and ATP (Supplementary Fig. 4).
# Supplementary Fig. 4 Dependence of GEC FINDER s on Mg2+ and ATP . a-j, Fluore scence intensities of
# GECF IN DERs in the absence of any substra te, in the pre sence of Mg2+ alone, ATP alone, both Mg2+ and ATP, Mg2+
# and ATP with re spective substra tes. Mg2+ concentra tion was 2.5 mM, and ATP concentra tion was 1 mM. a, 100 μM
# data are provided as a Source Data file.
# GECFINDER-Glu = target: T8, GECFINDER-Glu (Bacillus subtilis, UniProt P39845); test: Fluorescence dose-response of purified cpEGFP sensors (0.75 uM) in 100 mM Tris-HCl pH 7.5, room temperature, 1 mM ATP, 2.5 mM MgCl2; excitation 400, 460 or 480 nm by sensor, emission 510 nm; logistic five-parameter fit.; type: biochemical; conditions: n = 3
# T8 construct: gene ppsA; PpsA-GluA-PCP; cpEGFP inserted, linkers HS-WL
# Description: as §1, §2
# GECFINDER-Tyr = target: T9, GECFINDER-Tyr (Aneurinibacillus migulanus, UniProt P0C061, W239S); test: Fluorescence dose-response of purified binding-pocket-engineered sensors (0.75 uM) in 100 mM Tris-HCl pH 7.5, room temperature, 1 mM ATP, 2.5 mM MgCl2, excitation 460 or 480 nm, emission 510 nm; logistic five-parameter fit.; type: biochemical; conditions: n = 3
# T9 construct: gene grsA
# Description: as §3, §2
smiles,measurement,setting,value
"CC[C@H](C)[C@H](N)C(=O)O [Ile, isoleucine]",EC50,GECFINDER-Ile1,161 ± 32.1 µM
same,EC50,GECFINDER-Ile3,186 ± 61 µM
same,EC50,GECFINDER-Ile2,221 ± 66.3 µM
"N[C@@H](Cc1c[nH]cn1)C(=O)O [His, histidine]",EC50,GECFINDER-His2,13.2 ± 4.26 µM
same,EC50,GECFINDER-His1,10.4 ± 4.74 µM
"N[C@@H](CC(=O)O)c1ccccc1 [S-β-Phe, S-β-phenylalanine]",EC50,GECFINDER-Phe3,13.6 ± 1.28 µM
same,EC50,GECFINDER-SβF,7.4 ± 0.45 µM
O=C(O)/C=C/c1ccc(O)cc1 [4-coumaric acid],EC50,GECFINDER-4CA,1.03 ± 0.06 µM
same,"Wavelength scan, AVE of Repeat 1-3 (Fig. 3 b)",[1]; 0.001 μM 4-coumaric acid,368
same,"Wavelength scan, AVE of Repeat 1-3 (Fig. 3 b)",[1]; 2.5 μM 4-coumaric acid,388.333
same,"Wavelength scan, AVE of Repeat 1-3 (Fig. 3 b)",[1]; 250 μM 4-coumaric acid,108.667
same,"Dose-response, AVE of Repeat 1-3 (Fig. 3 a)",[2]; 4-coumaric acid 0.001 μM,0
same,"Dose-response, AVE of Repeat 1-3 (Fig. 3 a)",[2]; 4-coumaric acid 0.01 μM,0.02925
same,"Dose-response, AVE of Repeat 1-3 (Fig. 3 a)",[2]; 4-coumaric acid 0.25 μM,0.1354
same,"Dose-response, AVE of Repeat 1-3 (Fig. 3 a)",[2]; 4-coumaric acid 0.5 μM,0.2537
same,"Dose-response, AVE of Repeat 1-3 (Fig. 3 a)",[2]; 4-coumaric acid 2.5 μM,0.5733
same,"Dose-response, AVE of Repeat 1-3 (Fig. 3 a)",[2]; 4-coumaric acid 5 μM,0.6689
same,"Dose-response, AVE of Repeat 1-3 (Fig. 3 a)",[2]; 4-coumaric acid 25 μM,0.7533
same,"Dose-response, AVE of Repeat 1-3 (Fig. 3 a)",[2]; 4-coumaric acid 50 μM,0.7561
same,"Dose-response, AVE of Repeat 1-3 (Fig. 3 a)",[2]; 4-coumaric acid 250 μM,0.7978
same,"Dose-response, AVE of Repeat 1-3 (Fig. 3 a)",[2]; 4-coumaric acid 500 μM,0.7717
same,"Dose-response, AVE of Repeat 1-3 (Fig. 3 a)",[2]; 4-coumaric acid 2500 μM,0.8533
same,"Dose-response, AVE of Repeat 1-3 (Fig. 3 a)",[2]; 4-coumaric acid 5000 μM,0.8286
same,"fluorescence intensity, AVE of 3 repeats",[3],3682.33
"N[C@@H](CCC(=O)O)C(=O)O [Glu, glutamic acid]",EC50,GECFINDER-Glu,42.9 ± 3.93 µM
"N[C@@H](Cc1ccc(O)cc1)C(=O)O [Tyr, tyrosine]",EC50,GECFINDER-Phe3,225 ± 17.9 µM
same,EC50,GECFINDER-Tyr,89.8 ± 6.71 µM

# Reference: publication PMC10590383, “Repurposing conformational changes in ANL superfamily enzymes to rapidly generate biosensors for organic and amino acids” (Nature Communications, 2023)
